Here are results for 11 compounds from patent US20010044445A1, “AZOLE INHIBITORS OF CYTOKINE PRODUCTION” (priority 1999, published 2001).

The test system of series [1] is Human peripheral blood mononuclear cells. Description: Human Concanavalin-A Proliferation Assay (Con HU Assay). It counts as cell-based. The note with it: Homo sapiens, PBMC, concanavalin-A stimulated human PBMC; for inhibition at 10 µM / inhibition at 1 µM / inhibition at 100 µM: 72 h, 3 days, read-out: % Inhibition of proliferation (at concentrations of 1,10, or 100 μm); for inhibition at 10 µM: concentration 10 μm (in parentheses in the cell); for IC50: tritiated thymidine; for inhibition at 1 µM: concentration 1 μm (in parentheses in the cell); for inhibition at 100 µM: concentration 100 μm (in parentheses in the cell). In a few lines:
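Proliferation read as tritiated thymidine uptake (0.5 μCi/well, 6 h pulse on day 3) in human PBMC cultured 3 days with 2.5 μg/ml (final) concanavalin-A. Cells, 50,000 per well in supplemented RPMI 1640 with 10% FBS, received compound 15 min before mitogen.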

`Cc1nc(C)c(C(=O)Nc2ccc(-n3nc(C(F)(F)F)cc3C(F)(F)F)cc2)s1` [Example 105, N-[4-[3,5-bis(trifluoromethyl)-1H-pyrazol-1-yl]phenyl]-2,4-dimethyl-5-thiazolecarboxamide] yielded a melting point of 158 to 159 °C. For the same compound, in series [1], the inhibition at 10 µM was 100% and the IC50 stood at 387 nM.

Consider `O=C(Nc1ccc(-n2nc(C(F)(F)F)cc2C(F)(F)F)cc1)c1cccnc1` [Example 106, N-[4-[3,5-bis(trifluoromethyl)-1H-pyrazol-1-yl]phenyl]-3-pyridinecarboxamide], for which the melting point lay within 185 to 188 °C. For the same compound, in series [1], the inhibition at 10 µM was 100% and the IC50 amounted to 237 nM.

Compound `O=C(Nc1ccc(-n2nc(C(F)(F)F)cc2C(F)(F)F)cc1)c1ccc(CO)cc1` [Example 107, N-[4-[3,5-bis(trifluoromethyl)-1H-pyrazol-1-yl]phenyl]-4-(hydroxymethyl)benzamide] gave a melting point of 213 to 214 °C. Also, in series [1], the inhibition at 10 µM came to 99% and 304 nM corresponded to half-maximal inhibition (IC50).

As for `CS(=O)(=O)c1ccc(C(=O)Nc2ccc(-n3nc(C(F)(F)F)cc3C(F)(F)F)cc2)cc1` [Example 109, N-[4-[3,5-bis(trifluoromethyl)-1H-pyrazol-1-yl]phenyl]-4-(methylsulfonyl)benzamide], the melting point lay in the range of 216 to 218 °C. Besides, the inhibition at 1 µM in series [1] was 45%.

In turn, `O=C(Nc1ccc(-n2nc(C(F)(F)F)cc2C(F)(F)F)cc1)c1ccccc1I` [Example 110, N-[4-[3,5-bis(trifluoromethyl)-1H-pyrazol-1-yl]phenyl]-2-iodobenzamide] came in with a melting point of 180 to 182 °C. In series [1], the inhibition at 10 µM was determined as 99% and the IC50 was determined as 314 nM.

`O=C(Nc1ccc(-n2nc(C(F)(F)F)cc2C(F)(F)F)cc1)c1ccccc1F` [Example 114, N-[4-[3,5-bis(trifluoromethyl)-1H-pyrazol-1-yl]phenyl]-2-fluorobenzamide] showed a melting point of 188 to 190 °C. In series [1], the inhibition at 100 µM was 98% and the IC50 worked out at 84 nM.

Compound `O=C(Nc1ccc(-n2nc(C(F)(F)F)cc2C(F)(F)F)cc1)c1ccncc1` [Example 116, N-[4-[3,5-bis(trifluoromethyl)-1H-pyrazol-1-yl]phenyl]-4-pyridinecarboxamide] showed a melting point of 156 to 157 °C. In series [1], the inhibition at 10 µM was found to be 100% and the IC50 was 154 nM.

As for `O=C(Nc1ccc(-n2nc(C(F)(F)F)cc2C(F)(F)F)cc1)c1ccc(Cl)cc1[N+](=O)[O-]` [Example 117, N-[4-[3,5-bis(trifluoromethyl)-1H-pyrazol-1-yl]phenyl]-4-chloro-2-nitrobenzamide], the melting point lay in the range of 163 to 166 °C. In addition, in series [1], the inhibition at 100 µM came to 100% and the IC50 was found to be 158 nM.

For the compound `CC(=O)c1ccc(C(=O)Nc2ccc(-n3nc(C(F)(F)F)cc3C(F)(F)F)cc2)cc1` [Example 119, 4-Acetyl-N-[4-[3,5-bis(trifluoromethyl)-1H-pyrazol-1-yl]phenyl]benzamide], the melting point fell in the range of 203 to 204 °C. In addition, in series [1], the inhibition at 10 µM was found to be 100% and the IC50 stood at 572 nM.

`O=C(Nc1ccc(-n2nc(C(F)(F)F)cc2C(F)(F)F)cc1)C1CCNCC1` [Example 125, N-[4-[3,5-bis(trifluoromethyl)-1H-pyrazol-1-yl]phenyl]-4-piperidinecarboxamide] returned a melting point of 156 to 159 °C. In addition, the inhibition at 1 µM in series [1] came out at 6%.

With `CS(=O)(=O)c1cccc(C(=O)Nc2ccc(-n3nc(C(F)(F)F)cc3C(F)(F)F)cc2)c1` [Example 126, N-[4-[3,5-bis(trifluoromethyl)-1H-pyrazol-1-yl]phenyl]-3-(methylsulfonyl)benzamide], the melting point lay within 194 to 195 °C. In series [1], the inhibition at 10 µM was 79% and the IC50 came to 4910 nM.
